In patent publication US20240300975A1, “DIMETHYL-SUBSTITUTED THIAZOLOLACTAM COMPOUND AND USE THEREOF” (D3 Bio (Wuxi) Co., Ltd., priority 2021, published 2024) one finds IC50 data, which are given here for three molecules.

Test [1] concerns the target ERK2 (Homo sapiens (Human), UniProt P28482). The test can be described thus: In vitro ERK2 kinase activity assay (33P-ATP, filter-binding). Format: biochemical. Here is the method:
The ability of compounds to inhibit ERK1 and ERK2 kinase activity was measured.
20 mM Hepes (pH 7.5), 10 mM MgCl2, 1 mM ethylenebis(oxyethylenenitrilo)tetraacetic acid (EGTA), 0.02% Brij35, 0.02 mg/mL bovine serum albumin (BSA), 0.1 mM Na3VO4, 2 mM dithiothreitol (DTT), 1% DMSO.
The assay compound was dissolved in 100% DMSO to prepare a stock solution of specific concentration. The compound was serially diluted in DMSO solution using Integra Viaflo Assist smart pipette.
• a) The substrate MBP was prepared in freshly prepared reaction buffer; • b) ERK1 (or ERK2) kinase was added to the above-mentioned MBP solution and mixed gently; • c) The compound dissolved in 100% DMSO was added to the kinase reaction system using ultrasound technology (Echo550; nanoliter range), and the mixture was incubated at room temperature for 20 minutes; • d)^33P-ATP (specific concentration of […]) was added to the reaction system, and the reaction was started at this time; • e) The mixture was incubated at room temperature for 2 hours; • f) The amount of radioactivity was detected by filter-binding method; • g) ERK1 (or ERK2) kinase activity was calculated as the ratio of the remaining kinase activity in the assay sample to the kinase activity of the control group (treated by DMSO).
Curve was fitted using Prism (GraphPad software) and IC50 values were calculated.

The test system of test [2] is HT29 tumor cells. The test can be described thus: In vitro cell proliferation inhibition (CellTiterGlo). Format: cell-based. The conditions noted are these: Homo sapiens, HT-29. Here is the method:
The ability of compounds to inhibit the proliferation of HT29 tumor cells was measured.
The assay compound was dissolved in 100% DMSO to prepare 10 mM stock solution.
• a) UV light of a biological safety cabin was turned on, and 30 minutes were counted down; • b) In a 37° C. water bath, RPMI1640 medium and trypsin were preheated; • c) After completion of the UV irradiation, the biological safety cabin was opened. The preheated medium, trypsin and phosphate buffered saline (PBS), etc. were wiped with alcohol and placed in the biological safety cabin; • d) HT29 cells were removed from the incubator, and the old medium was removed in biological safety cabin. 10 ml of PBS was added. […] The culture vessel was shaken horizontally so that the trypsin evenly covered the cells at the bottom, and placed in an incubator for 2 minutes; • f) Cell digestion was stopped with complete medium, and the cell suspension was pipetted to homogeneity and counted; • g) According to the result of cell counting, the density of cell suspension was adjusted to 1500 cells per well, and the cell suspension was seeded at 50 μl per well; • h) The stock solution of compounds was serially diluted in DMSO solution, and compounds were added to cell plate using Tecan; • i) The compound-added cell plate and CellTiterGlo were equilibrated at room temperature, and 25 microliters of CellTiterGlo was then added to each well. […]

Chain of ERK2 (P28482 whole entry): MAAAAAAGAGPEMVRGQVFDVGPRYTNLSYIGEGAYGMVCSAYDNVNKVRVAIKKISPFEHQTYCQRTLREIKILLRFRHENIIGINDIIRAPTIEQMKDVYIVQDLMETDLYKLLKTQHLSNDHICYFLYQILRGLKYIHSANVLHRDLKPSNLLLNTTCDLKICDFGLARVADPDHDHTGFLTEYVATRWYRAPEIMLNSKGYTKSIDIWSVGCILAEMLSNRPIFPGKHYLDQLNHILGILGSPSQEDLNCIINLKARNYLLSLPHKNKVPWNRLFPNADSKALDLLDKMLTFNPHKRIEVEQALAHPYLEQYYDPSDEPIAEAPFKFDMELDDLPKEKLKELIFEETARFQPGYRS

In the case of `Cc1cccc(CN2C(=O)c3nc(-c4nc(NC5CCOCC5)ncc4C)sc3C2(C)C)n1` [WX002], the IC50 in test [1] was 0.47 nM; in test [2] it was 46 nM.

Consider `Cc1cccc(CN2C(=O)c3nc(-c4ccnc(Nc5ccnn5C)n4)sc3C2(C)C)n1` [WX003], for which, in test [1], the IC50 amounted to 0.93 nM.

In test [1], `CCc1cnc(Nc2ccnn2C)nc1-c1nc2c(s1)C(C)(C)N(Cc1cccc(C)n1)C2=O` [WX004] registered an IC50 of 0.34 nM.

Broadly, the IC50 is the concentration that inhibits the measured activity by half.
